Data: ChEMBL document CHEMBL5653631, “A Potent and Selective ULK1 Inhibitor Suppresses Autophagy and Sensitizes Cancer Cells to Nutrient Stress” (iScience, 2018)
pIC50: −log10 of the molar value.

Key:
[1] = target: T1, Serine/threonine-protein kinase ULK1 (Homo sapiens) (UniProt O75385); assay: Inhibition of ULK1 phosphorylation at Ser15 residue in HEK293 cells incubated for 1 hr by chemiluminescence based immunoblotting analysis; format: cell-based; conditions: HEK293T, dose <= 20.0 µM
T1 sequence (whole entry): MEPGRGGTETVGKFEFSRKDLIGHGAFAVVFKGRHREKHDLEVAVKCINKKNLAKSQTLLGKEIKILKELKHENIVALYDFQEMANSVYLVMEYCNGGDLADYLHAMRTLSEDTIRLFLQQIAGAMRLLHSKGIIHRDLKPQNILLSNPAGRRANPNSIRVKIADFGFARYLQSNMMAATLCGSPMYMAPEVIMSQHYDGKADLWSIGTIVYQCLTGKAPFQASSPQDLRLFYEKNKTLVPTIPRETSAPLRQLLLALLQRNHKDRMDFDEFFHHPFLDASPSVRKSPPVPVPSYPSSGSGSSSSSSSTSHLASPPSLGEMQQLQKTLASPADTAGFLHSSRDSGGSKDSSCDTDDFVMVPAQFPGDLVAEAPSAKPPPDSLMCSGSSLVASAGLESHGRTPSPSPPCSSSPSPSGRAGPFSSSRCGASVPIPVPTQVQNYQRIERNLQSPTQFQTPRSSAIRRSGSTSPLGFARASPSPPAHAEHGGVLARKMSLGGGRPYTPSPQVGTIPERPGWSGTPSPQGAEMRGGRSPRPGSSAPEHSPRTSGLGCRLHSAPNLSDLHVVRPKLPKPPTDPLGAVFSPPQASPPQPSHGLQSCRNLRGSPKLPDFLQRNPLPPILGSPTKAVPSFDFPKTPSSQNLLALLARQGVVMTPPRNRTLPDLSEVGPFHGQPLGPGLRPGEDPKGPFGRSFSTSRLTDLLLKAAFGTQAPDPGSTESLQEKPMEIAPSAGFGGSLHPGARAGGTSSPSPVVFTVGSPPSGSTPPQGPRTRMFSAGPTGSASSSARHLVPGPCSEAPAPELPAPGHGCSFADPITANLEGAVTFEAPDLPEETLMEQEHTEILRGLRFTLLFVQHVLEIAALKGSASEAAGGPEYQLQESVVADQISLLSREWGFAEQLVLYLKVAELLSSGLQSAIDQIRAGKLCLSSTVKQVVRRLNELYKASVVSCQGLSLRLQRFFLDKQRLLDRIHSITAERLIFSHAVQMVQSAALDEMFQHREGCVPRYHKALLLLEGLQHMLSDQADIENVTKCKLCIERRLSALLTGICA

[2] = target: T2, Tribbles homolog 2 (Homo sapiens) (UniProt Q92519); assay: Inhibition of human recombinant Trb2 at 500 nM in presence of ATP by radiometric assay relative to control
T2 sequence (whole entry): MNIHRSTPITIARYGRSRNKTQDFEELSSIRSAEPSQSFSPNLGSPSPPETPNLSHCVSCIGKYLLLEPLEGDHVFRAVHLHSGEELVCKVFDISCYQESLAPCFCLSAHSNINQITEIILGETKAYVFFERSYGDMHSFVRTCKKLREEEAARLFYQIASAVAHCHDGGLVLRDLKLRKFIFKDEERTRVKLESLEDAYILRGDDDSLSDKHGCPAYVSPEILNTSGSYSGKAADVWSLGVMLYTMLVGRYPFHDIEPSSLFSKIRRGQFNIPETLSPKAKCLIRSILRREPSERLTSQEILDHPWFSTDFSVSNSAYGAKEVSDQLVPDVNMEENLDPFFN

[3] = target: T3, Serine/threonine-protein kinase ULK2 (Homo sapiens, UniProt Q8IYT8); assay: Inhibition of human ULK2
T3 sequence (Q8IYT8 whole entry): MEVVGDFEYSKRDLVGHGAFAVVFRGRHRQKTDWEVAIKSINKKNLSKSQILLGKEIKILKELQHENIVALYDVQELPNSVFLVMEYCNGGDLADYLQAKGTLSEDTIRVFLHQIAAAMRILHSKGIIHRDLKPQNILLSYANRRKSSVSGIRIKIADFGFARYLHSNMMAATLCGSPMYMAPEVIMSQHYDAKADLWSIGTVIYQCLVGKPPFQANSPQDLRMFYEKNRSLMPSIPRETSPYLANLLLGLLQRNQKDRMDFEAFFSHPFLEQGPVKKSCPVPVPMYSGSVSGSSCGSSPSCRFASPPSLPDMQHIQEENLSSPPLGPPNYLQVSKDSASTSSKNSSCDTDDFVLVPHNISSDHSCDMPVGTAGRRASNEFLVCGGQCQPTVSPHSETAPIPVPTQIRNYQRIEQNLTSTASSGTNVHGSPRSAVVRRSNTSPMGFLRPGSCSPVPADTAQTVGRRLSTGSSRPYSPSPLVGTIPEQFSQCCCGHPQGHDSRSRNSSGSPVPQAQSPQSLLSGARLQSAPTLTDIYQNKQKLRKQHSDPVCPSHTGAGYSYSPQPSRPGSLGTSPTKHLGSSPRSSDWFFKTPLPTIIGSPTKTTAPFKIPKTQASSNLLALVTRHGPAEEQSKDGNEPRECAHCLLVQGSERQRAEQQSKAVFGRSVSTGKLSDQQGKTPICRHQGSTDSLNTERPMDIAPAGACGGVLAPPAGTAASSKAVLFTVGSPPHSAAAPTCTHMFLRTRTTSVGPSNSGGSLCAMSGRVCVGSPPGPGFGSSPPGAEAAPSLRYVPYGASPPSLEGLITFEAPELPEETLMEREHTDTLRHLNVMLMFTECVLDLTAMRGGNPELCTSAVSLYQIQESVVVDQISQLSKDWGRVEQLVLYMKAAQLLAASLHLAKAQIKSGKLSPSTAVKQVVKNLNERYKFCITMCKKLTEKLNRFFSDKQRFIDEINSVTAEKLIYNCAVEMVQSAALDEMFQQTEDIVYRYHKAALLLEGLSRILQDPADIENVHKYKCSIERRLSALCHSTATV

[4] = target: Serine/threonine-protein kinase 35 (Homo sapiens) (UniProt Q8TDR2); assay: Inhibition of human recombinant CLIK1 at 15 nM in presence of ATP by radiometric assay relative to control
[5] = target: Dual specificity mitogen-activated protein kinase kinase 2 (Homo sapiens) (UniProt P36507); assay: Inhibition of human recombinant MAP2K2 at 40 nM in presence of ATP by radiometric assay relative to control
Chain of Dual specificity mitogen-activated protein kinase kinase 2 (Homo sapiens) (P36507 whole entry): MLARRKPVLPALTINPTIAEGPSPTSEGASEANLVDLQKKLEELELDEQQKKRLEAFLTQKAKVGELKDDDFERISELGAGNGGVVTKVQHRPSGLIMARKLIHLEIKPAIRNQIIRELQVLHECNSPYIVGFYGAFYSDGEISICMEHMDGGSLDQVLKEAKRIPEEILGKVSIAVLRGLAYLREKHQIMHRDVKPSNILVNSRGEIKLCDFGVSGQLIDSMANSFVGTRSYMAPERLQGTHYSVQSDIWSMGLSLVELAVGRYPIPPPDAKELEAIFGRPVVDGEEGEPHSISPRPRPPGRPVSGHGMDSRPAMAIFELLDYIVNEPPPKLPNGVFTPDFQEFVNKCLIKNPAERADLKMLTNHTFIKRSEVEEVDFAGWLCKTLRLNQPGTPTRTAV

Chain of Serine/threonine-protein kinase 35 (Homo sapiens) (Q8TDR2 whole entry): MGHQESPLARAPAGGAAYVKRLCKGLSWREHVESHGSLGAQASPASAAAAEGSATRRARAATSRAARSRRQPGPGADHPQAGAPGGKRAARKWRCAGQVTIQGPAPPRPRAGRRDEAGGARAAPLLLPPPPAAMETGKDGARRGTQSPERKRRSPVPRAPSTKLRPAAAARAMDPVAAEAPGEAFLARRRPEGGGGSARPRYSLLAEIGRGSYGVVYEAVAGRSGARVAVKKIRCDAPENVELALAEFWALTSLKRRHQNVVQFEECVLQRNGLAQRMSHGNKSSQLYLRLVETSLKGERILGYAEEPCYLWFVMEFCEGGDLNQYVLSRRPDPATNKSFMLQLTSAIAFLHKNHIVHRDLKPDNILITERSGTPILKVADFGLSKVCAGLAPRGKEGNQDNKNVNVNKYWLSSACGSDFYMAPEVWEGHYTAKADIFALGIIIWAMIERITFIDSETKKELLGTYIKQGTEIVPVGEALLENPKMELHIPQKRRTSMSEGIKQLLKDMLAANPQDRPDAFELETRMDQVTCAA

| Compound | inhibition [1] | inhibition [2] [%] | pIC50 [3] | inhibition [4] [%] | inhibition [5] [%] |
| --- | --- | --- | --- | --- | --- |
| CNC(=O)c1ccccc1Oc1nc(Nc2cc(OC)c(OC)c(OC)c2)ncc1Br | Dose-Dependent Effect | 0 | 6.67 | – | – |
| CC(C)[C@H](NC(=O)c1cc(-c2cnn3cc(-c4ccc(OCCN5CCCCC5)cc4)cnc23)cs1)C(F)(F)F | Dose-Dependent Effect | – | 8.59 | 9 | – |
| O=C(N[C@@H](C1CC1)C(F)(F)F)c1cc(-c2cnn3cc(-c4ccc(F)cc4)cnc23)cs1 | Dose-Dependent Effect | – | 7.52 | – | 0 |
